In patent US6479033B1, “Antitumor cystostatic and contrast agent” (priority 1994, dated 2002):

Tested on: Tumor
Assay: Tumor growth and contrasting agent in the liver after treatment (carboplatin, Spherex, gelatin foam)
Format: in vivo
Conditions: carboplatin encapsulated in SUV-PEG
Text: The following Table summarizes results obtained using carboplatin as the cytostatic drug encapsulated in SUV-PEG and Spherex gelatin foam as the starch particle.

N.N.O=C([O-])C1(C(=O)[O-])CCC1.[Pt+2] [Carboplatin, carboplatin]
Tumor growth by a factor of (7 days after treatment): 1.45 ± 0.96
